Earlier results as cited in patent US20230241042A1, “USE OF PENEHYCLIDINE IN TREATMENT OR PREVENTION OF VISION-IMPAIRING EYE DISEASES” (GRAND LIFE SCIENCES GROUP (WUHAN) CO., LTD., priority 2020, published 2023).

Legend:
FDM [1] = settings: daily subconjunctival injection
FDM [2] = settings: in vivo
[3] = test system: chick modeled eyes with visual form deprivation myopia (FDM); settings: day 8, 0.01% by mass injected into the vitreous cavity
experimental myopia = settings: topical eye drops or oral administration

Row | SMILES | inhibition of the occurrence of FDM (FDM [1]) | prevention of FDM and retinal damage (FDM [2]) | further results
1 | C[N+]1(C)CCC(OC(=O)C(c2ccccc2)c2ccccc2)CC1.[I-] [4-DAMP] | ineffective |  | 
2 | C[C@@H]1OC(=O)[C@H]2C[C@H]3CCCC[C@@H]3[C@@H](/C=C/[C@H]3CCC[C@H](C)N3C)[C@@H]12 [Himbacine] |  | certain effect in preventing FDM without retinal damage | 
3 | CC[N+](C)(CC)CCOC(=O)C(O)(c1ccccc1)C1CCCCC1 (stereo not shown) [Oxypheneonium, Oxyphenonium] |  | certain effect in preventing FDM without retinal damage | 
4 | CN1[C@@H]2CC[C@H]1C[C@@H](OC(=O)C(CO)c1ccccc1)C2 (stereo partly shown) [atropine] |  | certain effect in preventing FDM without retinal damage | induced myopia [3]: −2.8 D; ocular axis extension [3]: 0.21 mm
5 | COc1ccccc1CNCCCCCCNCCCCCCCCNCCCCCCNCc1ccccc1OC [methoctramine] | ineffective |  | 
6 | CN1CCN(CC(=O)N2c3ccccc3C(=O)Nc3cccnc32)CC1 [pirenzepine] | could inhibit the occurrence of FDM | certain effect in preventing FDM without retinal damage | 
7 | OC(CCN1CCCCC1)(c1ccccc1)C1CCCCC1 (stereo not shown) [trihexyphenidyl] |  |  | prevention of the progression of experimental myopia (experimental myopia): not effective in preventing the progression of experimental myopia
